Target: MYT1 protein (Homo sapiens (Human), UniProt Q99640)
Experiment: Test for binding to ATP binding site of MYT1 (Kinase Tracer 178 / Eu-Anti-GST antibody TR-FRET)
Settings: ATP binding site of MYT1, 30 minutes at room temperature

Sequence of MYT1 protein (Q99640 whole entry): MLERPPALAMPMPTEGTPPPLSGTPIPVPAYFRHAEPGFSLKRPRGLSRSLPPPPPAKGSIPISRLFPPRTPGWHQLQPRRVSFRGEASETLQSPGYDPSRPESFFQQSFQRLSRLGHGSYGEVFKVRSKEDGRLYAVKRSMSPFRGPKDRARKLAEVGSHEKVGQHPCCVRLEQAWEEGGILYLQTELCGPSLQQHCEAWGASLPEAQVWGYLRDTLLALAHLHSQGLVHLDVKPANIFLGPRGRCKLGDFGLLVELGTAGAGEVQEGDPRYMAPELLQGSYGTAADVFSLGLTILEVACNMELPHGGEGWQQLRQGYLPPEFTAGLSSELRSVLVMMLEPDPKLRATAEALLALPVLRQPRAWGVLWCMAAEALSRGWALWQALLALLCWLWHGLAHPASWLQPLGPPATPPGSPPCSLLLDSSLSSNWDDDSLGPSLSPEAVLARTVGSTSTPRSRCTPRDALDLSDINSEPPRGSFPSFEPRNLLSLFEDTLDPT

SMILES | IC50 [nM]
Nc1c(-c2ccc(F)c3[nH]ncc23)c2cc(OC3CCS(=O)(=O)CC3)c3ncccc3c2[nH]c1=O [Compound C47, 3-Amino-6-(1,1-dioxothian-4-yl)oxy-4-(7-fluoro-1H-indazol-4-yl)-1H-1,7-phenanthrolin-2-one] | 4
Nc1c(-c2ccc(F)c3[nH]ncc23)c2cc(OC3CCC(F)(F)CC3)c3ncccc3c2[nH]c1=O [Compound C48, 3-Amino-6-(4,4-difluorocyclohexyl)oxy-4-(7-fluoro-1H-indazol-4-yl)-1H-1,7-phenanthrolin-2-one] | 10
Nc1c(-c2ccc(F)c3[nH]ncc23)c2cc(OCC34CC(C3)C4)c3ncccc3c2[nH]c1=O [Compound C49, 3-Amino-6-(1-bicyclo[1.1.1]pentanylmethoxy)-4-(7-fluoro-1H-indazol-4-yl)-1H-1,7-phenanthrolin-2-one] | 1.7
CO[C@H](C)COc1cc2c(-c3ccc(F)c4[nH]ncc34)c(N)c(=O)[nH]c2c2cccnc12 [Compound C50, 3-Amino-4-(7-fluoro-1H-indazol-4-yl)-6-[(2R)-2-methoxypropoxy]-1H-1,7-phenanthrolin-2-one] | 4
Nc1c(-c2ccc(F)c3[nH]ncc23)c2cc(O[C@H]3CCCOC3)c3ncccc3c2[nH]c1=O [Compound C51, 3-Amino-4-(7-fluoro-1H-indazol-4-yl)-6-[(3S)-oxan-3-yl]oxy-1H-1,7-phenanthrolin-2-one] | 1.7
CC1(COc2cc3c(-c4ccc(F)c5[nH]ncc45)c(N)c(=O)[nH]c3c3cccnc23)CC(F)(F)C1 [Compound C52, 3-Amino-6-[(3,3-difluoro-1-methylcyclobutyl)methoxy]-4-(7-fluoro-1H-indazol-4-yl)-1H-1,7-one] | 2.6
COC1(COc2cc3c(-c4ccc(F)c5[nH]ncc45)c(N)c(=O)[nH]c3c3cccnc23)CC1 [Compound C53, 3-Amino-4-(7-fluoro-1H-indazol-4-yl)-6-[(1-methoxycyclopropyl)methoxy]-1H-1,7-phenanthrolin-2-one] | 4.2
N#CC1(COc2cc3c(-c4ccc(F)c5[nH]ncc45)c(N)c(=O)[nH]c3c3cccnc23)CC1 [Compound C54, 1-[[3-Amino-4-(7-fluoro-1H-indazol-4-yl)-2-oxo-1H-1,7-phenanthrolin-6-yl]oxymethyl]cyclopropane-1-carbonitrile] | 1.4
N#CC1(COc2cc3c(-c4ccc(F)c5[nH]ncc45)c(N)c(=O)[nH]c3c3cccnc23)CCC1 [Compound C55, 1-[[3-Amino-4-(7-fluoro-1H-indazol-4-yl)-2-oxo-1H-1,7-phenanthrolin-6-yl]oxymethyl]cyclobutane-1-carbonitrile] | 0.92
Nc1c(-c2ccc(F)c3[nH]ncc23)c2cc(OCC3(F)CCC3)c3ncccc3c2[nH]c1=O [Compound C56, 3-Amino-6-[(1-fluorocyclobutyl)methoxy]-4-(7-fluoro-1H-indazol-4-yl)-1H-1,7-phenanthrolin-2-one] | 1.7
Nc1c(-c2ccc(F)c3[nH]ncc23)c2cc(OC3CC(C(F)(F)F)C3)c3ncccc3c2[nH]c1=O (centres unmarked) [Compound C57, 3-Amino-4-(7-fluoro-1H-indazol-4-yl)-6-[3-(trifluoromethyl)cyclobutyl]oxy-1H-1,7-one] | 2.5
Nc1c(-c2ccc(F)c3[nH]ncc23)c2cc(OC3CC(C(F)F)C3)c3ncccc3c2[nH]c1=O (centres unmarked) [Compound C58, 3-Amino-6-[3-(difluoromethyl)cyclobutyl]oxy-4-(7-fluoro-1H-indazol-4-yl)-1H-1,7-phenanthrolin-2-one] | 1.5
CC(C)(COc1cc2c(-c3ccc(F)c4[nH]ncc34)c(N)c(=O)[nH]c2c2cccnc12)C(F)(F)F [Compound C59, 3-Amino-4-(7-fluoro-1H-indazol-4-yl)-6-(3,3,3-trifluoro-2,2-dimethylpropoxy)-1H-1,7-one] | 5.3
CCCOc1cc2c(-c3ccc(F)c4[nH]ncc34)c(N)c(=O)[nH]c2c2cccnc12 [Compound C60, 3-Amino-4-(7-fluoro-1H-indazol-4-yl)-6-propoxy-1H-1,7-phenanthrolin-2-one] | 0.85

— US20260062412A1, “NITROGEN-CONTAINING HETEROCYCLIC COMPOUND HAVING MYT1 INHIBITORY ACTIVITY” (CHUGAI SEIYAKU KABUSHIKI KAISHA, priority 2023, published 2026)
